Patent publication US12202808B2, “Substituted antivirals for treating coronavirus infection” (Erasmus University Medical Center Rotterdam, priority 2021, dated 2025)
Like-named read-outs stand apart in the source and are kept apart here.

Tests used:
[1] = tested on: SARS-CoV-2; type: cell-based; details: bronchiolar organoid-derived cultures, MOI 0.1, 2-72 h p.i., most pronounced at 72 h p.i.
[2] = tested on: Bronchiolar organoid-derived cultures; type: cell-based, human
[3] = tested on: SARS-CoV-2; type: cell-based; details: bronchioalveolar organoid-derived cultures, 10 μM, MOI 0.1, 2-72 h p.i.

CO[C@H]1CN(C)C(=O)c2cc(NC(=O)NC(C)C)ccc2OC[C@H](C)N(Cc2ccc(-c3ccccn3)cc2)C[C@@H]1C [Bafcilin1]
inhibition of SARS-CoV-2 replication as compared to the DMSO control ([1]; 1 μM): inhibited SARS-CoV-2 replication
inhibition of SARS-CoV-2 replication as compared to the DMSO control ([1]; 10 μM): inhibited SARS-CoV-2 replication
GSEA (Enrichr, COVID-19 Related Gene Sets) of treatment affected genes ([2]; 1 μM, 10 μM and common between both treatments): significant enrichment of genes upregulated upon SARS-CoV-2 infection
number of genes affected (differentially expressed) as compared to DMSO ([2]; 1 μM, 24 h treatment): 653 genes
Enrichr analysis of genes downregulated by treatment ([2]; 10 μM): enriched for genes upregulated upon SARS-CoV-2 or SARS-CoV-1 infection
Enrichr analysis of genes upregulated by treatment ([2]; 10 μM): enriched for genes downregulated upon SARS-CoV-2 or MERS-CoV infection
number of genes differentially expressed in the same direction in both concentration groups ([2]; common to 1 μM and 10 μM, 24 h treatment): 437 genes
inhibition of SARS-CoV-2 replication [3]: inhibited SARS-CoV-2 replication
